Experimental data as given in PubChem BioAssay (NCI).
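Cultured in 96-well plates, cells were exposed to test compound for 48 hours across five concentrations. GI50: concentration for 50% inhibition of growth. TGI: concentration producing complete growth inhibition.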

What was measured:
Assay in all cases: inhibition of tumour cell growth, NCI panel, 48 h
EKVX NSCLC = system: EKVX NSCLC
SK-MEL-5 melanoma = system: SK-MEL-5 melanoma
SF-268 CNS = system: SF-268 CNS
CAKI-1 renal = system: CAKI-1 renal
ACHN renal = system: ACHN renal
OVCAR-8 ovarian = system: OVCAR-8 ovarian
MDA-MB-231 breast = system: MDA-MB-231 breast
SW-620 colon = system: SW-620 colon
A549 NSCLC = system: A549 NSCLC
SF-539 CNS = system: SF-539 CNS

SMILES	GI50 (EKVX NSCLC) [µM]	TGI (EKVX NSCLC) [µM]	GI50 (SK-MEL-5 melanoma) [µM]	TGI (SK-MEL-5 melanoma) [µM]	GI50 (SF-268 CNS) [µM]	TGI (SF-268 CNS) [µM]	GI50 (CAKI-1 renal) [µM]	TGI (CAKI-1 renal) [µM]	GI50 (ACHN renal) [µM]	TGI (ACHN renal) [µM]	GI50 (OVCAR-8 ovarian) [µM]	TGI (OVCAR-8 ovarian) [µM]	GI50 (MDA-MB-231 breast) [µM]	TGI (MDA-MB-231 breast) [µM]	GI50 (SW-620 colon) [µM]	TGI (SW-620 colon) [µM]	GI50 (A549 NSCLC) [µM]	TGI (A549 NSCLC) [µM]	GI50 (SF-539 CNS) [µM]	TGI (SF-539 CNS) [µM]
O=C(COc1ccc(/C=C2\CSc3ccccc3C2=O)cc1)Nc1nccs1	17.3	31.1	11.5	23.6	3.61	13.6	12.8	25.3	13.5	26.4	7.76	32.8	14.4	35	2.7	7.12	15.3	28.5	15	29.7
COc1ccc2c(c1)[C@@]13CCCC[C@H]1[C@@H](C2)N(C)CC3=O	–	43.4	–	61	–	35.8	–	> 100	–	30.4	–	42.1	–	36.4	–	–	–	41	–	–
O=C(/C=C/c1cc(CN2CCOCC2)c(O)c2ncccc12)c1cc(CN2CCOCC2)c(O)c2ncccc12	0.077	> 100	0.0237	0.0607	0.0469	> 100	0.0842	> 100	0.0329	> 100	0.0359	> 100	0.145	> 100	< 0.0186	> 100	0.0285	> 100	0.0433	23.6
N#CC(=NCCO)C1=C(O)c2ccccc2C1=O	–	> 100	–	> 100	–	> 100	–	> 100	–	> 100	–	> 100	–	> 100	–	> 100	–	> 100	–	> 100
C=C1C(=O)O[C@H]2[C@H]1CC/C(COC(=O)c1ccc(Cl)nc1)=C\CC[C@@]1(C)O[C@@H]21	3.41	13.6	3.23	11.1	2.62	9.49	–	–	1.68	3.6	3.26	12.7	2.4	5.7	1.23	2.96	11.3	26.2	1.61	3.61
COc1cc2c3c(n(CCCN(C)C)c(=O)c2cc1OC)-c1ccccc1C3=O	> 43.7	> 72.7	10.1	47	7.69	> 100	12.7	> 77.9	6.9	20.8	7.87	> 100	10.6	23.6	2.11	66	10.3	> 54.6	4.47	28.7
Nc1nc(SN=Nc2ccc(S(N)(=O)=O)cc2)c2[nH]cnc2n1	0.714	> 100	1.26	5.97	0.563	> 100	0.332	6.57	1.6	> 100	0.419	> 100	0.722	> 100	0.659	> 100	3.06	> 100	0.552	> 100
